According to patent publication US20250052744A1, “Dyes and Uses Thereof” (The University of Liverpool, priority 2021, published 2025):

Legend:
Assay in all cases: Qualitative dye staining on agarose pads (EVOS M7000)
Type in all cases: cell-based
Set-up in all cases: key to Relative fluorescent intensity: Very high: If the cells looked twice as big in the fluorescent channel, it was marked as having “very high” relative fluorescent intensity; High: if the cells looked bigger in the fluorescent channel, it was marked as having “high” relative fluorescent intensity; Medium: If the cells looked almost the same size in the fluorescent channel and the bright field, it was marked as having “medium” relative fluorescent intensity; Low: If the cells looked smaller in the fluorescent channel as compared to the brightfield but still the whole cell was visible, it was marked as having “low” relative fluorescent intensity; Negligible: If only a few traces of a cell was visible in the fluorescent channel, it was marked as having “negligible” relative fluorescent intensity
Enterococcus faecium = details: DiSC3(5) 3 μM, SYBR Green I 10×, SYTO 13 3 μM, FM4-64 15 μM
Klebsiella oxytoca = details: DiSC3(5) 3 μM, SYBR Green I 10×, SYTO 13 3 μM, FM4-64 15 μM
Klebsiella = details: Table 6 thresholds, DiSC3(5) 3 μM, SYBR Green I 10×, SYTO 13 3 μM, FM4-64 15 μM
[1] = Table 7 commercial strain Enterococcus faecium NCTC 7171
[2] = Table 7 commercial strain Enterococcus faecium NCTC 13923
[3] = Table 8 sample Enterococcus faecium (011)
[4] = Table 8 sample Enterococcus faecium (012)
[5] = Table 8 sample Enterococcus faecium (013)
[6] = Table 8 sample Klebsiella oxytoca (091)
[7] = Table 8 sample Klebsiella oxytoca (092)
[8] = Table 8 sample Klebsiella oxytoca (093)

| Compound | Percentage of cells stained (Enterococcus faecium; [1]) | Relative fluorescent intensity (Enterococcus faecium; [1]) | Percentage of cells stained (Enterococcus faecium; [2]) | Relative fluorescent intensity (Enterococcus faecium; [2]) | Percentage of cells stained (Enterococcus faecium; [3]) | Relative fluorescent intensity (Enterococcus faecium; [3]) | Percentage of cells stained (Enterococcus faecium; [4]) | Relative fluorescent intensity (Enterococcus faecium; [4]) | Percentage of cells stained (Enterococcus faecium; [5]) | Relative fluorescent intensity (Enterococcus faecium; [5]) | Percentage of cells stained (Klebsiella oxytoca; [6]) | Relative fluorescent intensity (Klebsiella oxytoca; [6]) | Percentage of cells stained (Klebsiella oxytoca; [7]) | Relative fluorescent intensity (Klebsiella oxytoca; [7]) | Percentage of cells stained (Klebsiella oxytoca; [8]) | Relative fluorescent intensity (Klebsiella oxytoca; [8]) | Percentage of cells stained (Klebsiella) | Relative fluorescent intensity (Klebsiella) |
| --- | --- | --- | --- | --- | --- | --- | --- | --- | --- | --- | --- | --- | --- | --- | --- | --- | --- | --- |
| CCCN1C(=CC=CC=Cc2sc3ccccc3[n+]2CCC)Sc2ccccc21.[I-] [DiSC3(5), 3,3′-Dipropylthiadicarbocyanine Iodide] | Almost all | Low | Almost all | Low | Almost all | Low | Almost all | Low | Half | Low | Almost all | Medium | Almost all | Low | Half | Low | Few | Low-Medium |
| CCN(CC)c1ccc(C=CC=CC=Cc2cc[n+](CCC[N+](CC)(CC)CC)cc2)cc1.[Br-].[Br-] [FM 4-64, N-(3-Triethylammoniumpropyl)-4-(6-(4-(Diethylamino) Phenyl) Hexatrienyl) Pyridinium Dibromide] | Half | Medium | Half | Medium | Half | Medium | Half | Medium | Almost all | Medium | Few | Low | Almost all | Low | Half | Low | Few | Low |
| CCCN(CCCN(C)C)c1cc(/C=C2/Sc3ccccc3N2C)c2ccccc2[n+]1-c1ccccc1 [SYBR Green I, N′,N′-dimethyl-N-[4-[(E)-(3-methyl-1,3-benzothiazol-2-ylidene)methyl]-1-phenylquinolin-1-ium-2-yl]-N-propylpropane-1,3-diamine] | Almost all | High | Almost all | High | Almost all | High | Almost all | High | Almost all | High | Almost all | Low | Almost all | Low | Half | Low | Few | Low |
